Assay results as given in US20100280118A1, “Methods for treating substance dependence” (The Scripps Research Institute, priority 2007, published 2010).
Marks after values point to notes of the source that are not given here.

What was measured:
[1] = system: cue-reactive, alcohol-dependent individuals; assay: Cue reactivity study, 1 week gabapentin 1200 mg vs placebo, alcohol and affective cue-induced craving; type: in vivo, human
Description: This Example describes the results of a study to examine the effectiveness of gabapentin 1200 mg for attenuating symptoms of protracted abstinence in a non treatment-seeking sample of cue-reactive, alcohol-dependent individuals. Subjects were 33 paid volunteers with current DSM-IV alcohol dependence and a strength of craving rating 1σ or greater for alcohol than water cues. Subjects were randomly assigned to gabapentin or placebo for 1-week and then participated in a within-subjects trial where each was exposed to standardized sets of pleasant, neutral, and unpleasant visual stimuli followed by alcohol or water cues. A key aspect of the study design is exposure to alcohol cues (sight and smell of the subject's favorite alcoholic beverage) without consumption. Alcohol consumption would be expected to mask the effects of any medication that targets symptoms of protracted abstinence, as either or both could attenuate such symptoms; the effects of alcohol and the drug to be tested would therefore be inextricably confounded. The design is therefore relatively novel in combining elicitation of craving while inducing both positive and negative affect (along with interaction effects) with non-consumptive alcohol cue exposure. As such it may be particularly well-suited for testing the effectiveness of pharmacological treatments intended to normalize the neurobiological imbalances associated with protracted abstinence in alcoholics.
Subject enrollment: The study was conducted at the University of Miami School of Medicine, Miami, Fla. and approved by that institution's Institutional Review Board as conforming to the ethical standards of the 1964 Declaration of Helsinki. Subjects provided written informed consent prior to participation. Subjects were non treatment-seeking paid volunteers recruited primarily through advertisements, meeting the Diagnostic and Statistical Manual of Mental Disorders, 4th Edition (DSM-IV; American Psychiatric Association, 1994) criteria for current alcohol dependence, abstinent from alcohol on the day of the study, as verified by Breath Alcohol Concentration (BAC), not in acute withdrawal as verified by a Clinical Institute Withdrawal Assessments for Alcohol (CIWA-Ar; Sullivan et al., Br J Addict 84:1353-1357, 1989) score of <8, and meeting the definition of “cue reactive”. An individual was considered cue reactive if his or her “strength of craving” score under a neutral affect condition (see Study Overview below) was ≧1 standard deviation (3 VAS rating scale points; see measures discussion) greater for alcohol than for water cues during a mini cue reactivity session. This is similar to the criterion described by Rubonis et al. (J. Stud. Alcohol. 55:487-494, 1994) to classify cue reactors. Exclusionary criteria consisted of clinically significant medical or psychiatric disorders including depression, anxiety, or dependence on substances other than alcohol and nicotine.
Study Overview and Experimental Design: Subjects meeting admission criteria were randomized to receive gabapentin 1200 mg or placebo. Because image-based affective cue reactivity was not as strong as we had anticipated, to improve statistical power we augmented the control group with untreated individuals from three otherwise-similar lab studies. Criteria for participation were the same in all cases. Dosages (matched in the placebo condition) were titrated as follows: 300 mg morning on day 1, 300 mg morning and also evening on day 2, 300 mg morning, midday and evening on day 3, and 300 mg morning and midday followed by 600 mg evening for days 4-7. On day 7 of double-blind medication, overall measures of mood, sleep, and craving were assessed. This one-week interval of chronic dosing is intended to model and predict the critical first week on medication in a Phase II or III clinical trial, when participants' experiences with sleep and mood, or side effects, can dramatically affect treatment adherence and risk for dropout. […]

[2] = system: non treatment-seeking volunteers with current cannabis and alcohol dependence; assay: Pilot laboratory study, one week gabapentin 1200 mg/d vs placebo; type: in vivo, human
Description: This Example describes treatment of subjects suffering from cannabis dependence with gabapentin. Subjects with DSM-IV cannabis dependence were enrolled in a clinical study of treatment with gabapentin. Earlier, in a pilot laboratory study, the safety and efficacy of gabapentin 1200 mg/d in non treatment-seeking volunteers with current cannabis and alcohol dependence involving were examined in one week of chronic dosing with double-blind, randomly assigned active drug or placebo. […] The results lend support to: 1) the safety and tolerability of our drug titration schedule and the steady state dose of gabapentin 1200 mg/d in outpatients with cannabis dependence; 2) the efficacy of gabapentin 1200 mg/d in treating disturbed sleep, a key symptom of cannabis withdrawal; and 3) our ability to recruit a sample of subjects with cannabis dependence who are willing to participate in clinical research involving medication. Based on the results from this pilot study, subjects with only cannabis dependence were then recruited and treated with gabapentin, as detailed below.

[3] = system: outpatients with alcohol dependence; assay: 12-week double-blind, placebo-controlled, dose-ranging study of gabapentin 900 or 1800 mg/day in alcohol dependence; type: in vivo, human; details: for Cohen's d, drinks per drinking day: interim analysis
Description: This example describes the study of gabapentin treatment of subjects suffering from alcohol dependence. A 12-week, double-blind, placebo-controlled, dose-ranging study was conducted with random assignment to gabapentin 900 mg/day, 1800 mg/day, or placebo. Subjects are outpatients with alcohol dependence. The 3 pharmacological treatment conditions were administered in conjunction with manual-guided behavioral counseling that incorporates strategies to increase motivation, abstinence, and medication compliance. Counseling and research assessments occurred weekly throughout the 12-week treatment phase. Post-treatment assessments occurred at Weeks 13, 24, and 36.
The criteria for inclusion are as follows: (1) Males or females over 18 years of age; (2) Meets DSM-IV criteria for current alcohol dependence; (3) Seeking research-based outpatient treatment for alcohol problems; (4) Abstinent from alcohol a minimum of 3 days to a maximum of 30 days at the time of randomization; and (5) Willing to attend 12 weekly study visits and 3 follow-up visits. The criteria for exclusion are as follows: (1) Currently meets DSM-IV criteria for dependence on substances other than alcohol, nicotine or caffeine; (2) Significant medical disorders that will increase potential risk or interfere with study participation, e.g., plasma […] >1.4 mg/dL; (3) Sexually active female subjects with childbearing potential who are pregnant, nursing or refuse to use a reliable method of birth control; (4) Meets DSM-IV criteria for a major AXIS I disorder other than alcohol dependence, including depressive and anxiety disorders, and is in need of, or currently undergoing, pharmacotherapy; (5) Inability to understand and/or comply with the provisions of the protocol and consent form; (6) Treatment with an investigational drug during the previous month; (7) Sensitivity to study drug as evidenced by adverse drug experiences with gabapentin or its ingredients; (8) Ongoing treatment with disulfuram (Antabuse), naltrexone (ReVia®), acamprosate (Campral®) or other medications that may affect study outcomes, e.g., anticonvulsants; (9) More than one month of abstinence prior to randomization; (10) Subjects who require medicated detoxification (Note: Subjects may proceed with study evaluation after completion of detoxification); (11) Subjects for whom treatment of alcoholism is being mandated by a legal authority; (12) Unable to identify at least one collateral informant to verify drinking status at baseline and monthly during study, and to assist in tracking subjects for follow-up assessments; or (13) Subjects who plan to move out of the geographic area served by the Clinic prior to study completion.
Primary outcome of the treatment was assesses with the following measures. Timeline Followback Interview (TLFB; Sobell and Sobell, 1992) provides quantity and frequency estimates of alcohol intake at baseline and throughout the study using a standard drinks format (Research Nurse, 20 minutes at screening and Week 24 and 36 follow-up visits, 5 minutes at weekly study visits). […] Therefore, TLFB data is supported by weekly breathalyzers and monthly collateral informant reports and GGT. If unresolved inconsistencies between sources occur, then the most negative outcome will be assumed accurate.
Secondary outcome of the treatment was assessed with the following measures. Alcohol Craving Questionnaire-Short Form (ACQ-SF; Singleton et al., 1994) provides a quick assessment of current drinking urges, difficulty resisting urges and anticipation of positive outcome or relief from negative affective state by drinking (baseline and every study visit, self report, 1-2 minutes). Beck Depression Inventory (BDI; Beck et al., 1961) is a self-rating of severity of depressive symptoms (baseline and every study visit, 5 minutes). Gamma glutamyl transferase (GGT) is used as a biochemical marker of alcohol abstinence or relapse. […]

[4] = system: outpatients with current cannabis dependence; assay: 12-week randomized, double-blind, placebo-controlled trial of gabapentin 1200 mg/d in cannabis dependence
[5] = gabapentin 1200 mg vs placebo, day 7, alcohol vs water cue, 0-20 rating
[6] = gabapentin 1200 mg vs placebo, day 7, alcohol vs water cue, VAS 0-20
[7] = gabapentin 1200 mg vs placebo, day 7, negative vs neutral affect cue, 0-20 rating
[8] = gabapentin 1200 mg vs placebo, day 7, negative vs neutral affect cue, VAS 0-20
[9] = gabapentin 1200 mg vs placebo, day 7, positive vs neutral affect cue, 0-20 rating
[10] = gabapentin 1200 mg vs placebo, day 7, positive vs neutral affect cue, VAS 0-20
[11] = % of subjects, gabapentin 1200 mg/d

`NCC1(CC(=O)O)CCCCC1` [gabapentin, (1-aminomethyl)-1-cyclohexaneacetic acid] was tested, and the “symptoms generating the drug-placebo difference in symptom counts” value ([1]; 1 week, gabapentin 1200 mg vs placebo) was “dizziness (χ^2(1)=6.1, p<0.02) and fatigue”, the “total symptom counts over the week on medication (mean)” value ([1]; SAFTEE-G, 1 week, gabapentin 1200 mg, standard deviation 2.7, n=30 assessed) was 3.3 and the “Bev x Gaba, Feel strong emotion (estimated model coefficient)” value [1, 5] was 1.15. For the same molecule, the “Bev x Gaba, Like beverage (estimated model coefficient)” value [1, 5] was −0.25, the “Bev x Gaba, SAM Arousal (estimated model coefficient)” value [1, 5] was −1.79 and the “Bev x Gaba, SAM Dominance (estimated model coefficient)” value [1, 5] was 0.81. For the same molecule, the “Bev x Gaba, SAM Valence (estimated model coefficient)” value [1, 5] was 3.28*, the “Bev x Gaba, Craving Difficult to turn down (estimated model coefficient)” value [1, 6] was −1.31^†† and the “Bev x Gaba, Craving Drink Now (estimated model coefficient)” value [1, 6] was −1.96^†. The “Bev x Gaba, Craving Make Things Perfect (estimated model coefficient)” value [1, 6] was 0.23, the “Bev x Gaba, Craving Strength (estimated model coefficient)” value [1, 6] was −2.16^† and the “Aff− x Gaba, Feel strong emotion (estimated model coefficient)” value [1, 7] was −1.29. The “Aff− x Gaba, Like beverage (estimated model coefficient)” value [1, 7] was 0.98, the “Aff− x Gaba, SAM Arousal (estimated model coefficient)” value [1, 7] was −4.92* and the “Aff− x Gaba, SAM Dominance (estimated model coefficient)” value [1, 7] was 1.30. For the same molecule, the “Aff− x Gaba, SAM Valence (estimated model coefficient)” value [1, 7] was 1.25, the “Aff− x Gaba, Craving Difficult to turn down (estimated model coefficient)” value [1, 8] was 1.26 and the “Aff− x Gaba, Craving Drink Now (estimated model coefficient)” value [1, 8] was 0.58. The “Aff− x Gaba, Craving Make Things Perfect (estimated model coefficient)” value [1, 8] was 0.20, the “Aff− x Gaba, Craving Strength (estimated model coefficient)” value [1, 8] was 0.96 and the “Aff+ x Gaba, Feel strong emotion (estimated model coefficient)” value [1, 9] was −1.08. For the same molecule, the “Aff+ x Gaba, Like beverage (estimated model coefficient)” value [1, 9] was −0.04, the “Aff+ x Gaba, SAM Arousal (estimated model coefficient)” value [1, 9] was −3.22^† and the “Aff+ x Gaba, SAM Dominance (estimated model coefficient)” value [1, 9] was 0.80. The “Aff+ x Gaba, SAM Valence (estimated model coefficient)” value [1, 9] was 0.21, the “Aff+ x Gaba, Craving Difficult to turn down (estimated model coefficient)” value [1, 10] was −1.34^†† and the “Aff+ x Gaba, Craving Drink Now (estimated model coefficient)” value [1, 10] was 0.16. The “Aff+ x Gaba, Craving Make Things Perfect (estimated model coefficient)” value [1, 10] was 0.44, the “Aff+ x Gaba, Craving Strength (estimated model coefficient)” value [1, 10] was 0.25 and the “ARCI scores on five drug-of-abuse groups (abuse potential)” value ([1]; gabapentin vs. placebo, n=28) was “no statistically significant differences”. For the same molecule, the “CBC, LFT, or urinalysis values” [2] was “no change from baseline”, the adverse drug complaints [2] was “no adverse drug complaints of more than mild severity” and the BDI total score ([3]; 900 mg/d vs placebo) was “no significant effect”. For the same molecule, the “sleep disturbance (PSQI), effect size d” value ([3]; 900 mg/d vs placebo, p<0.01) was −0.50, the “daytime dysfunction (PSQI), effect size d” value ([3]; 900 mg/d vs placebo, p<0.05) was −0.27 and the “Cohen's d, drinks per drinking day” value ([3]; 900 mg/d vs placebo) was 0.82. The “negative affective symptoms (BDI), effect size d” value ([3]; 1800 mg/d relative to placebo, p<0.05) was 0.33, the “daytime dysfunction (PSQI), effect size d” value ([3]; 1800 mg/d vs placebo, p<0.01) was −0.43 and the “Cohen's d, drinks per drinking day” value ([3]; 1800 mg/d vs placebo) was 0.71. For the same molecule, the “time the beneficial effect was sustained after completing treatment” value ([3]; complete study (n=150)) was “up to 12 weeks”, the “deaths or serious drug-related adverse events” value ([3]; throughout the study) was “no deaths or serious drug-related adverse events” and the “subjective sleep quality or PSQI summary score” value ([3]; treatment vs placebo, trend for 900 mg/d, p<0.08) was “no significant effect”. For the same molecule, the “deaths or terminations due to drug-related adverse events” value ([4]; 12 weeks) was “no deaths or terminations due to drug-related adverse events”, the “Adverse event: Abdominal Pain” value [4, 11] was 25% and the “Adverse event: Decreased Appetite” value [4, 11] was 10%. For the same molecule, the “Adverse event: Depression” value [4, 11] was 30%, the “Adverse event: Dizziness” value [4, 11] was 0% and the “Adverse event: Fatigue” value [4, 11] was 15%. The “Adverse event: Headache” value [4, 11] was 20%, the “Adverse event: Increased Appetite” value [4, 11] was 15% and the “Adverse event: Nausea” value [4, 11] was 15%. For the same molecule, the “Adverse event: Nervousness” value [4, 11] was 25%, the “Adverse event: Other” value [4, 11] was 5% and the “average severity of AE's” value ([4]; both treatment groups, 2=mild) was 2.0±0.7. For the same molecule, the “number of AE's complained of per subject” value ([4]; gabapentin 1200 mg/d, 12 weeks, p=0.11 vs placebo) was 4.0±6.7.
